Data reported in patent publication US20240307365A1, “Pharmaceutical Composition for Preventing or Treating Systemic Sclerosis” (Daewoong Pharmaceutical Co., Ltd., priority 2021, published 2024).
Values joined by “and” are separate entries in the source; they are usually repeats but may differ in a detail not shown here. Identical values can stand only once.

Experiments:
[1] = tested on: systemic sclerosis-associated interstitial lung disease (SSc-ILD) mouse model administered with BLM; experiment: SSc-ILD bleomycin osmotic pump mouse model: lung function evaluation (SpO2); format: in vivo, C57BL/6 mice
Source text: (§1) Seven-week-old C57BL/6 mice were obtained and acclimatized indoors for 5 days or more. For the systemic sclerosis-related interstitial lung disease model, an osmotic pump injection model was designed. For that reason, if it is not modeling using an osmotic pump, it is a model in which BLM should be injected subcutaneously into the back of the test animal every day for 4 weeks, and this is because these tests can cause very extreme pain at the site of administration.
(§2) The incision site was sutured, an osmotic pump was inserted, bleomycin was administered for 1 week, and then the osmotic pump was removed on the 10th day. It was confirmed that systemic sclerosis-associated interstitial lung disease was induced in a mouse model administered with BLM for 1 week, and specific experimental groups are shown in Table 1 below.
This lung function evaluation is an experiment to show the therapeutic effect of this active substance in patients with systemic sclerosis-associated interstitial lung diseases, and is the most direct and important evaluation index that has the greatest influence on the symptoms and quality of life of patients with systemic sclerosis-associated interstitial lung diseases, unlike the general pulmonary fibrosis ameliorating effect. This is an experiment that can most directly show the effect of improving lung function in an animal model of systemic sclerosis-associated interstitial lung disease by measuring the oxygen concentration in the body.
On the 21st day, it was measured with a SpO2 measuring device (Berry, Veterinary Pulse Oximeter) via the abdominal side of the mouse, and the results are shown in Table 5 and FIG. 3.

[2] = tested on: 3D skin organoid prepared using iPSC-derived fibroblasts from patients with systemic dermatosis; experiment: Skin hardening alleviation in 3D skin organoid model (thickness by H&E staining); format: cell-based; settings: 1 μM in DMSO solution, control DMSO only (FIG. 1)
Description: A 3D skin organoid was prepared using iPSC-derived fibroblasts from patients with systemic dermatosis according to the method described in the literature (Lancet. 2009 Nov. 21;374(9703):1745-53). When 1 μM of active ingredient was treated with DMSO solution, it was confirmed through H&E immunochemical staining that the thickness of the 3D skin organoid was reduced (FIG. 1). The control group was treated with only DMSO.

[3] = tested on: systemic sclerosis-associated interstitial lung disease (SSc-ILD) mouse model administered with BLM; experiment: SSc-ILD bleomycin osmotic pump mouse model: skin thickness (H&E, MT stain); format: in vivo, C57BL/6 mice; settings: day 28; for Skin thickness: individual animals 1-9
Source text: as §1, §2
On the day 28, skin tissues were extracted from mice and subjected to H&E and Mansson's Trichrome (MT stain). The skin thickness of 10 sites was measured randomly through the image of the photograph in which stain progressed (progressed at a minimum interval of 200˜300 um). The entire area of the photograph was measured as evenly as possible, and the areas where the stain tissue was damaged were excluded from the measurement.

[4] = tested on: systemic sclerosis-associated interstitial lung disease (SSc-ILD) mouse model administered with BLM; experiment: SSc-ILD bleomycin osmotic pump mouse model: lung weight; format: in vivo, C57BL/6 mice; design: Lung weight: unit not given here; settings: for Lung weight: individual animals 1-9, unit not given
Source text: as §1, §2

[5] = tested on: systemic sclerosis-associated interstitial lung disease (SSc-ILD) mouse model administered with BLM; experiment: SSc-ILD bleomycin osmotic pump mouse model: body weight (%); format: in vivo, C57BL/6 mice; settings: for Body weight (%) change: individual animals 1-9
Source text: as §1, §2

[6] = tested on: systemic sclerosis-associated interstitial lung disease (SSc-ILD) mouse model administered with BLM; experiment: SSc-ILD bleomycin osmotic pump mouse model: collagen content (hydroxyproline) in skin tissue; format: in vivo, C57BL/6 mice; settings: for hydroxyproline value, ratio compared to a normal group: skin tissue, individual animals 1-9
Source text: as §1, §2
An attempt was made to measuring the amount of hydroxyproline in the mouse and thus indirectly measure the collagen content. Analysis was performed using INSOLUBLE Collagen Assay (Biocolor, S2000), and the details are as follows.
First, 10 mg of frozen skin tissue was pulverized with 100 ul of fragmentation reagent. 100 ul of 37% HCl was added and incubated at 65° C. for 3 hours. The contents of the tube were shaken at 30 minute intervals to aid tissue disintegration. Centrifugation was performed at 12,000 rpm for 10 minutes. After centrifugation, it was transferred to a 1.5 ml tube. 50 ul was taken from a sample between 10 and 100 ul, distilled water was added, and the sample was prepared so as to match with 100 ul.
1 ml of dye was added to 100 ul of the prepared sample, and mixed for 30 minutes. The mixture was centrifuged at 12,000 rpm for 10 minutes, and then transferred to a new tube. The dye was removed with 750 ul of ice-cold acid-salt wash reagent. After centrifugation at 12,000 rpm for 10 minutes, it was transferred to a new tube. The tube was mixed with the collagen-binding dye using a vortex mixer, and gollagen binding dye was dissolved within 10 minutes to complete the measurement preparation (measurement should be completed within 2˜3 hours). The tube cap was closed until it was ready to measure absorbance.
200 ul of each sample was transferred to an individual well of a 96 micro-well plate, and the absorbance was measured at 560 nm.

[7] = tested on: mouse model of systemic scleroderma skin organoid transplantation; experiment: Skin hardening alleviation in 3D skin organoid transplantation mouse model (skin thickness, fibrosis factors by immunochemical staining); format: in vivo, SCID mice; settings: daily for 2 weeks
Source text: The previously constructed 3D skin organoid derived from the systemic scleroderma patient iPSC was transplanted into SCID mice to construct a mouse model of systemic scleroderma. The mouse skin tissue was cut into 1×2 cm, and then 3D skin organoid skin tissue was sutured to the mouse skin. For a skin transplantation method, it was transplanted to mice or the like using a tie-over dressing method used clinically. After placing a gauze on the suture site, it was tied with a suture and dressed with a band.
The active ingredient was subcutaneously administered at a dose of 3 mg/kg and 10 mg/kg daily for 2 weeks to a mouse model of systemic scleroderma skin organoid transplantation. For the negative control group (NC), a physiological saline was administered to a normal skin tissue, and for the positive control group (SSc), a physiological saline was administered to a systemic scleroderma skin organoid transplanted skin tissue. The skin thickness, which is the primary evaluation index of systemic scleroderma, was measured through immunochemical staining, and the results are shown in FIG. 2.
To confirm whether the fibrosis factor is reduced in systemic scleroderma skin tissue by the active ingredient, immunochemical staining was performed and the results are shown in FIG. 3.

[8] = 3 and 10 mg/kg subcutaneous, immunochemical staining, *p<0.05, ***p<0.001 (FIG. 3)

O[C@H]1CCCN[C@@H]1CCCn1cnc2c(Cl)c(Cl)ccc21 [Active ingredient] was tested, and the “oxygen saturation recovery rate versus nintedanib (60 mg/kg) group” value ([1]; 30 mg/kg oral, day 21) was “comparable to that of nintedanib”, the “SpO2 (oxygen saturation) compared with the vehicle” value ([1]; 30 mg/kg oral, day 21, p<0.001) was “higher oxygen saturation” and the “SpO2 (oxygen saturation), significance” value ([1]; from 10 mg/kg oral, day 21 (FIG. 7)) was “significant results”. For the same molecule, the “thickness of the 3D skin organoid” value [2] was “reduced”, the “density of collagen in the skin (MT stain)” value ([3]; 3 mg/kg oral) was “tendency to decrease” and the “skin thickness, significance” value ([3]; 3 mg/kg oral) was “did not significantly decrease”. The Skin thickness ([3]; 3 mg/kg oral) was 809.254 μm and 771.562 μm and 778.660 μm and 688.725 μm and 759.037 μm and 677.319 μm and 744.986 μm and 904.141 μm and 641.841 μm, the “skin thickness improvement effect compared with 60 mg/kg of nintedanib” value ([3]; 10 mg/kg oral) was “superior” and the Skin thickness ([3]; 10 mg/kg oral) was 526.170 μm and 521.027 μm and 425.415 μm and 456.862 μm and 672.616 μm and 593.826 μm and 601.558 μm and 809.106 μm and 708.308 μm. The “skin thickness, significance” value ([3]; 30 mg/kg oral, P<0.0001 or less) was “very significant results”, the Skin thickness ([3]; 30 mg/kg oral) was 475.515 μm and 412.271 μm and 525.311 μm and 593.963 μm and 526.388 μm and 443.336 μm and 601.558 μm and 558.530 μm and 479.961 μm and the “collagen density in the skin (MT stain)” value ([3]; active ingredient administered as a whole) was “decreased”. The “skin thickness, significance” value ([3]; from 10 mg/kg oral) was “significant results”, the Lung weight ([4]; 3 mg/kg oral) was 1.01 and 1.14 (2×) and 1.08 (2×) and 0.98 (2×) and 1.15 and 0.92 and the Lung weight ([4]; 10 mg/kg oral) was 0.98 and 1.22 and 1.14 and 1.12 and 0.95 and 1.16 and 0.99 and 0.93 and 1.08. For the same molecule, the “change in lung weight corrected by body weight, significance” value ([4]; 30 mg/kg oral) was “significance increased to p<0.01”, the Lung weight ([4]; 30 mg/kg oral) was 1.10 and 0.99 and 0.90 and 0.98 (2×) and 1.03 and 0.94 and 1.09 and 0.97 and the “change in lung weight corrected by body weight, significance” value ([4]; from 10 mg/kg oral) was “showed a significance”. The “change in lung weight, significance” value ([4]; only at 30 mg/kg oral) was “significant tendency”, the “Body weight (%) change” value ([5]; 3 mg/kg oral, 28 days) was −2.45% and −2.14% and 1.34% and −0.33% and −1.93% and 8.65% and 3.02% and −0.36% and 1.07% and the “Body weight (%) change” value ([5]; 10 mg/kg oral, 28 days) was 4.62% and 2.54% and 1.96% and −4.1% and −2.48% and 0.48% and 0.14% and 4.88% and 4.78%. For the same molecule, the “Body weight (%) change” value ([5]; 30 mg/kg oral, 28 days) was 12.09% and 7.78% and 2.13% and 2.34% and 1.45% and 9.52% and 5.35% and −2.86% and 7.57%, the “body weight compared to the vehicle” value ([5]; 30 mg/kg oral, 28 days, p<0.01) was “significantly increased” and the “changes in body weight, significance” value ([5]; from 3 mg/kg oral, 28 days) was “significant results”. The “hydroxyproline value, ratio compared to a normal group” value (from here on “hydroxyproline value, ratio”) ([6]; 3 mg/kg oral) was 1.51 (2×) and 1.96 and 1.66 and 1.94 and 1.85 and 1.74 and 1.57 and 2.01, the “hydroxyproline value, ratio” value ([6]; 10 mg/kg oral) was 2.27 and 2.26 (2×) and 1.70 and 1.93 and 1.57 and 2.16 and 1.82 and 2.10 and the “amount of hydroxyproline in the skin, significance” value ([6]; 30 mg/kg oral, P<0.001 or less) was “very significant result”. For the same molecule, the “hydroxyproline value, ratio” value ([6]; 30 mg/kg oral) was 1.70 and 1.48 and 1.81 and 2.04 and 2.09 (2×) and 1.75 and 1.77 and 1.28, the “amount of hydroxyproline in the skin, significance” value ([6]; from 10 mg/kg oral) was “significant results” and the “thickness of the skin tissue” value ([7]; 3 mg/kg and 10 mg/kg subcutaneous, ***p<0.001 (FIG. 2)) was “significantly reduced”. The “fibrotic factor Collagen I in skin tissue” value [7, 8] was “significantly reduced”, the “fibrotic factor Collagen III in skin tissue” value [7, 8] was “significantly reduced” and the “fibrotic factor aSMA in skin tissue” value [7, 8] was “significantly reduced”.
For COC(=O)c1ccc2c(c1)NC(=O)/C2=C(\Nc1ccc(N(C)C(=O)CN2CCN(C)CC2)cc1)c1ccccc1 [NIN, Nintedanib, reference compound], the Skin thickness ([3]; nintedanib 60 mg/kg oral) was 675.558 μm and 623.019 μm and 651.831 μm and 660.809 μm and 649.479 μm and 620.302 μm and 651.572 μm and 856.355 μm and 664.973 μm, the Lung weight ([4]; nintedanib 60 mg/kg oral) was 0.96 and 0.99 (2×) and 1.04 and 0.95 and 1.01 and 0.98 and 1.16 and 0.89 and the “Body weight (%) change” value ([5]; nintedanib 60 mg/kg oral) was −0.45% and 0.58% and 8.79% and 0.44% and −2.94% and 2.46% and 4.14% and 1.78% and 4.49%. For the same molecule, the “hydroxyproline value, ratio” value ([6]; nintedanib 60 mg/kg oral) was 1.34 and 1.83 and 1.63 and 1.53 and 1.08 and 1.37 and 1.43 and 1.65 and 1.45.
